For the data set the following is noted: 1.0% DMSO, 24-hour incubation at ambient temperature, maximum theoretical 100 μM; for pH 2 solubility: 0.1N HCl, first value of the cell; for pH 7 solubility: 1×PBS buffer (pH 7.4), second value of the cell.

SMILES strings stand for the structures.

Take `C[C@@H](OC(=O)N(c1nn(CC(F)(F)F)c2c(-c3ccc(C#CC(C)(C)S(C)(=O)=O)nc3[C@H](Cc3cc(F)cc(F)c3)NC(=O)Cn3nc(C(F)(F)F)c4c3C(F)(F)[C@@H]3C[C@H]43)ccc(Cl)c12)S(C)(=O)=O)C(=O)O` [Compound 116, (R)-2-(((4-chloro-7-(2-((S)-1-(2-((3bS,4aR)-5,5-difluoro-3-(trifluoromethyl)-3b,4,4a,5-tetrahydro-1H-cyclopropa[3,4]cyclopenta[1,2-c]pyrazol-1-yl)acetamido)-2-(3,5-difluorophenyl)ethyl)-6-(3-methyl-3-(methylsulfonyl)but-1-yn-1-yl)pyridin-3-yl)-1-(2,2,2-trifluoroethyl)-1H-indazol-3-yl)(methylsulfonyl)carbamoyl)oxy)propanoic acid]: the “pH 2 solubility” value is listed as 1/1 μM and the “pH 7 solubility” value is listed as 1/1 μM.
Regarding `CC(C)(C#Cc1ccc(-c2ccc(Cl)c3c(N(C(=O)NC(CO)CO)S(C)(=O)=O)nn(CC(F)(F)F)c23)c([C@H](Cc2cc(F)cc(F)c2)NC(=O)Cn2nc(C(F)(F)F)c3c2C(F)(F)[C@@H]2C[C@H]32)n1)S(C)(=O)=O` [Compound 36, N—((S)-1-(3-(4-chloro-3-(N-((1,3-dihydroxypropan-2-yl)carbamoyl)methylsulfonamido)-1-(2,2,2-trifluoroethyl)-1H-indazol-7-yl)-6-(3-methyl-3-(methylsulfonyl)but-1-yn-1-yl)pyridin-2-yl)-2-(3,5-difluorophenyl)ethyl)-2-((3bS,4aR)-5,5-difluoro-3-(trifluoromethyl)-3b,4,4a,5-tetrahydro-1H-cyclopropa[3,4]cyclopenta[1,2-c]pyrazol-1-yl)acetamide], the “pH 2 solubility” value is reported as 1 μM and the “pH 7 solubility” value is recorded as 5 μM.
The matching figures for `CC(C)(C#Cc1ccc(-c2ccc(Cl)c3c(N(C(=O)O[C@H]4C[C@H](NC(=N)N)C4)S(C)(=O)=O)nn(CC(F)(F)F)c23)c([C@H](Cc2cc(F)cc(F)c2)NC(=O)Cn2nc(C(F)(F)F)c3c2C(F)(F)[C@@H]2C[C@H]32)n1)S(C)(=O)=O` [Compound 128, trans-3-guanidinocyclobutyl (4-chloro-7-(2-((S)-1-(2-((3bS,4aR)-5,5-difluoro-3-(trifluoromethyl)-3b,4,4a,5-tetrahydro-1H-cyclopropa[3,4]cyclopenta[1,2-c]pyrazol-1-yl)acetamido)-2-(3,5-difluorophenyl)ethyl)-6-(3-methyl-3-(methylsulfonyl)but-1-yn-1-yl)pyridin-3-yl)-1-(2,2,2-trifluoroethyl)-1H-indazol-3-yl)(methylsulfonyl)carbamate]: 5 μM and 1 μM.
The matching figures for `CC(C)(C#Cc1ccc(-c2ccc(Cl)c3c(N(C(=O)NCCCP(=O)(O)O)S(C)(=O)=O)nn(CC(F)(F)F)c23)c([C@H](Cc2cc(F)cc(F)c2)NC(=O)Cn2nc(C(F)(F)F)c3c2C(F)(F)[C@@H]2C[C@H]32)n1)S(C)(=O)=O` [Compound 54-1, (3-(3-(4-chloro-7-(2-((S)-1-(2-((3bS,4aR)-5,5-difluoro-3-(trifluoromethyl)-3b,4,4a,5-tetrahydro-1H-cyclopropa[3,4]cyclopenta[1,2-c]pyrazol-1-yl)acetamido)-2-(3,5-difluorophenyl)ethyl)-6-(3-methyl-3-(methylsulfonyl)but-1-yn-1-yl)pyridin-3-yl)-1-(2,2,2-trifluoroethyl)-1H-indazol-3-yl)-3-(methylsulfonyl)ureido)propyl)phosphonic acid]: 1 μM and 14 μM.
`CC(C)(C#Cc1ccc(-c2ccc(Cl)c3c(N(C(=O)NCCOP(=O)(O)O)S(C)(=O)=O)nn(CC(F)(F)F)c23)c([C@H](Cc2cc(F)cc(F)c2)NC(=O)Cn2nc(C(F)(F)F)c3c2C(F)(F)[C@@H]2C[C@H]32)n1)S(C)(=O)=O` [Compound 41, 2-(3-(4-chloro-7-(2-((S)-1-(2-((3bS,4aR)-5,5-difluoro-3-(trifluoromethyl)-3b,4,4a,5-tetrahydro-1H-cyclopropa[3,4]cyclopenta[1,2-c]pyrazol-1-yl)acetamido)-2-(3,5-difluorophenyl)ethyl)-6-(3-methyl-3-(methylsulfonyl)but-1-yn-1-yl)pyridin-3-yl)-1-(2,2,2-trifluoroethyl)-1H-indazol-3-yl)-3-(methylsulfonyl)ureido)ethyl dihydrogen phosphate]: the “pH 2 solubility” value was determined as 3 μM and the “pH 7 solubility” value was 17 μM.
The like results for `CC(C)(C#Cc1ccc(-c2ccc(Cl)c3c(N(CCOP(=O)(O)O)S(C)(=O)=O)nn(CC(F)(F)F)c23)c([C@H](Cc2cc(F)cc(F)c2)NC(=O)Cn2nc(C(F)(F)F)c3c2C(F)(F)[C@@H]2C[C@H]32)n1)S(C)(=O)=O` [Compound 19, 2-(N-(4-chloro-7-(2-((S)-1-(2-((3bS,4aR)-5,5-difluoro-3-(trifluoromethyl)-3b,4,4a,5-tetrahydro-1H-cyclopropa[3,4]cyclopenta[1,2-c]pyrazol-1-yl)acetamido)-2-(3,5-difluorophenyl)ethyl)-6-(3-methyl-3-(methylsulfonyl)but-1-yn-1-yl)pyridin-3-yl)-1-(2,2,2-trifluoroethyl)-1H-indazol-3-yl)methylsulfonamido)ethyl dihydrogen phosphate] were, in that order, 1 μM and 100 μM.
On to `CC(C)(C#Cc1ccc(-c2ccc(Cl)c3c(N(C(=O)NC(COC(=O)C(=O)O)COC(=O)C(=O)O)S(C)(=O)=O)nn(CC(F)(F)F)c23)c([C@H](Cc2cc(F)cc(F)c2)NC(=O)Cn2nc(C(F)(F)F)c3c2C(F)(F)[C@@H]2C[C@H]32)n1)S(C)(=O)=O` [Compound 37, 2,2′-((2-(3-(4-chloro-7-(2-((S)-1-(2-((3bS,4aR)-5,5-difluoro-3-(trifluoromethyl)-3b,4,4a,5-tetrahydro-1H-cyclopropa[3,4]cyclopenta[1,2-c]pyrazol-1-yl)acetamido)-2-(3,5-difluorophenyl)ethyl)-6-(3-methyl-3-(methylsulfonyl)but-1-yn-1-yl)pyridin-3-yl)-1-(2,2,2-trifluoroethyl)-1H-indazol-3-yl)-3-(methylsulfonyl)ureido)propane-1,3-diyl)bis(oxy))bis(2-oxoacetic acid)], for which the “pH 2 solubility” value amounted to 3 μM and the “pH 7 solubility” value came to 18 μM.
Regarding `CC(C)(C#Cc1ccc(-c2ccc(Cl)c3c(N(C(=O)NC(COP(=O)(O)O)COP(=O)(O)O)S(C)(=O)=O)nn(CC(F)(F)F)c23)c([C@H](Cc2cc(F)cc(F)c2)NC(=O)Cn2nc(C(F)(F)F)c3c2C(F)(F)[C@@H]2C[C@H]32)n1)S(C)(=O)=O` [Compound 38, 2-(3-(4-chloro-7-(2-((S)-1-(2-((3bS,4aR)-5,5-difluoro-3-(trifluoromethyl)-3b,4,4a,5-tetrahydro-1H-cyclopropa[3,4]cyclopenta[1,2-c]pyrazol-1-yl)acetamido)-2-(3,5-difluorophenyl)ethyl)-6-(3-methyl-3-(methylsulfonyl)but-1-yn-1-yl)pyridin-3-yl)-1-(2,2,2-trifluoroethyl)-1H-indazol-3-yl)-3-(methylsulfonyl)ureido)propane-1,3-diyl bis(dihydrogen phosphate)], the “pH 2 solubility” value was determined as 10 μM and the “pH 7 solubility” value came out at 16 μM.

The values above are taken from US12404262B2 (priority 2021, dated 2025).
